{
  "source": "patent US20060292243A1",
  "about": "“Arsenic compounds for the treatment of the arsenic-sensitive blast-cell related diseases” (priority 2005, published 2006)",
  "key": {"[1]": {"tested_on": "PBMCs (peripheral blood mononuclear cells)", "experiment": "PI staining, cell death within all PBMCs by flowcytometry", "type": "cell-based", "text": "Arsenic trioxide (Asadin®) induces differentiation and apoptosis of malignant cells in vitro and in vivo and has been used in the treatment of a variety of hematological malignancies, the main goal of this example is to try to identify the apoptotic effect of arsenic trioxide on various PBMCs (peripheral blood mononuclear cells), and the methodologies used in this invention include:\n1. The isolation procedure using Ficoll Plaque for exploiting the different densities of RBCs and PBMCs to separate them.\n2. The detection of apoptosis by PI staining through flowcytometry.\nIn the PI-based study, under different concentrations of arsenic trioxide (0, 0.5, 2.5, 5, or 10 μM), the percentages of cell death (within all PBMCs) in 24 hr and 48 hr were calculated respectively in Table 1.1."}, "[2]": {"tested_on": "cultured human fibroblasts", "experiment": "Cell cycle effect on cultured human fibroblasts (MTT, flowcytometry, western blot, promoter luciferase)", "type": "cell-based", "conditions": "1 to 10 μM, 24 hr", "text": "Arsenic trioxide has been approved for APL (acute promyelocytic leukemia) therapy, and though much work remains to be done on the application of arsenic trioxide and the mechanism of arsenic toxicity is not fully understood, several recent works pointed out the involvement of oxidative stress in arsenic-induced DNA damage in living cells may cause cell cycle arrest."}, "OVA-specific IgE": {"tested_on": "OVA-specific IgE", "experiment": "OVA-specific IgE in serum of OVA-immunized mice", "type": "in vivo, BALB/c mice", "protocol": "(§1) BALB/c mice (female, 6-8 weeks) were immunized with ovalbumin (OVA) at day 0, 14, 21 and 28. 38 days later, animals were injected with arsenic trioxide (ATO) i.p. for 7 days and antigen challenges with OVA were performed at day 42, 43, 44. At day 45, the airway enhanced pause (PenH) values were measured. 48 hours after the last antigen challenges, the mice were sacrificed, the trachea cannulated, and bronchoalveolar lavage (BAL) was performed by four repeated lavages with balanced salt solution (HBSS) injected into the lungs via the trachea. Total cell counts were performed with a hemocytometer after staining with trypan blue, and then cytospins were prepared, and a differential count of 300 cells per slide was performed. To obtain the absolute number of each leukocyte subtype in the lavage, the percentage of each cell type was multiplied by the total number of cells that were recovered from the bronchoalveolar lavage fluid (BALF). Eotaxin in the BALF was measured via ELISA. Four groups of mice were treated as Table 3.1.\nGroup A mice were challenged by PBS only and then treated by PBS, too. Group B mice were immunized by ovalbumin and then treated by PBS only. […]\nAfter antigen challenges, mice serum were prepared and OVA-specific IgE values in serum were detected for evidence of immunization."}, "Eotaxin": {"tested_on": "Eotaxin", "experiment": "Eotaxin in BALF by ELISA, OVA-immunized mice", "type": "in vivo, BALB/c mice", "protocol": "as §1\n(§2) Group A mice were challenged by PBS only and then treated by PBS, too. Group B mice were immunized by ovalbumin and then treated by PBS only. Group C mice were immunized by ovalbumin and then treated by arsenic trioxide in a dosage of 2.5 mg per kg for mice. Group D mice were challenged by ovalbumin as group B and C and then treated by arsenic trioxide in a dosage of 5 mg/kg."}, "BALB/c mice": {"tested_on": "BALB/c mice", "experiment": "Airway responsiveness to methacholine (PenH, pulmonary function test), OVA-immunized mice", "type": "in vivo", "protocol": "as §1, §2\nThe mice were challenged with methacholine (Mch.) in an increasing concentration and the airway constriction of the mice was measured by using pulmonary function test, whereafter the data of Table 3.5 was obtained. […] The result is also consistent with the results of eotaxin and eosinophil in BALF."}, "NZB/NZW mice": {"tested_on": "NZB/NZW mice", "experiment": "Severe glomerulonephritis (proteinuria by urine dipstick) in SLE model mice", "type": "in vivo", "conditions": "for Mice with severe glomerulonephritis (%): proteinuria more than 1 g/L (2+)", "protocol": "In vivo studies on the activity of arsenic compound were carried out by using an experimental animal model of human Systemic Lupus Erythematosus. NZB/NZW denotes the mouse strain that spontaneously develops an autoimmune syndrome having notable similarities to human Systemic Lupus Erythematosus. Autoimmune disease in NZB/NZW mice is characterized by antinuclear antibodies (IgG) production about 4 months of age, and glomerulonephritis with proteinuria is developed when at 9 months of age, and that is the major cause of death (uremia).\nAt 24 weeks of age, mice (3 groups) were treated 3 times per week with PBS (Group I as positive control), 2.5 mg/kg of As2O3 (Group II), or 5 mg/kg of As2O3 (Group III) administered intraperitoneally. The treatment was stopped at 28 weeks of age. Mice were observed daily for clinical signs of disease and for mortality and were bled every 4 weeks for determination of anti-DNA antibody production.\nUrine protein levels were determined by colorimetric analysis using dipsticks (Multistix®, Bayer). Severe glomerulonephritis was defined as proteinuria more than 1 g/L (2+) by urine dipstick."}, "Trypanosoma brucei": {"tested_on": "Trypanosoma brucei", "experiment": "Anti-Trypanosoma test, viable cell count", "type": "cell-based", "protocol": "Arsenic trioxide (Asadin®, 10 mg/10 ml/vial) was used to check the toxicity on the Trypanosoma brucei. Viable cell count was microscopically monitored. […] This is one third of recommended dosage of Melarsoprol (an Anti-Trypanosoma drug). Moreover, cytology observation noticed specific death morphology on cell toxicity. […] Further cytology examination on the death cells will be examined."}, "[3]": {"conditions": "Group C: OVA, ATO 2.5 mg/kg i.p. for 7 days"}, "[4]": {"conditions": "Group D: OVA, ATO 5 mg/kg i.p. for 7 days"}},
  "note": "Entries after “also recorded” stand apart in the source; their conditions may differ. Marks after values point to notes of the source that are not given here.",
  "data": [
    {"substance": "arsenic trioxide", "values": [
      {"measurement": "24 hr % cell death", "setting": "[1]; 0.5 μM", "result": "7.3 ± 1.2", "unit": "%"},
      {"measurement": "48 hr % cell death", "setting": "[1]; 0.5 μM", "result": "7.6 ± 0.6", "unit": "%"},
      {"measurement": "24 hr % cell death", "setting": "[1]; 2.5 μM", "result": "13.7 ± 1.6", "unit": "%"},
      {"measurement": "48 hr % cell death", "setting": "[1]; 2.5 μM", "result": "15.2 ± 2.3", "unit": "%"},
      {"measurement": "24 hr % cell death", "setting": "[1]; 5.0 μM", "result": "14.6 ± 2.1", "unit": "%"},
      {"measurement": "48 hr % cell death", "setting": "[1]; 5.0 μM", "result": "17.2 ± 1.9", "unit": "%"},
      {"measurement": "24 hr % cell death", "setting": "[1]; 10 μM", "result": "17.8 ± 1.8", "unit": "%"},
      {"measurement": "48 hr % cell death", "setting": "[1]; 10 μM", "result": "20.3 ± 2.6", "unit": "%"},
      {"measurement": "effect on cell cycle of fibroblasts", "setting": "[2]", "result": "cell cycle arrest especially in G2/M"},
      {"measurement": "OVA-specific IgE (SI.) in serum, Mean", "setting": "OVA-specific IgE; [3]", "result": 2.20, "unit": "SI."},
      {"measurement": "OVA-specific IgE (SI.) in serum, Mean", "setting": "OVA-specific IgE; [4]", "result": 1.96, "unit": "SI."},
      {"measurement": "eotaxin in BALF, Mean", "setting": "Eotaxin; [3]", "result": "12.38* pg/ml"},
      {"measurement": "eotaxin in BALF, Mean", "setting": "Eotaxin; [4]", "result": 16.00, "unit": "pg/mL"},
      {"measurement": "effect on eotaxin level after antigen challenge", "setting": "Eotaxin; especially 2.5 mg/kg, group C vs group B p<0.05", "result": "diminish the eotaxin level"},
      {"measurement": "effect on airway hyper-reactivity / responsiveness to methacholine", "setting": "BALB/c mice; BALB/c mice, especially 2.5 mg/kg", "result": "does decrease the airway responsiveness; also recorded: successfully blocked"},
      {"measurement": "airway constriction by pulmonary function test (PenH)", "setting": "BALB/c mice; Group C: ATO 2.5 mg/kg, Mch 6.25 mg/ml, mean ± SD", "result": "3.62 ± 0.47"},
      {"measurement": "airway constriction by pulmonary function test (PenH)", "setting": "BALB/c mice; Group C: ATO 2.5 mg/kg, Mch 12.5 mg/ml, mean ± SD", "result": "7.83 ± 1.13"},
      {"measurement": "airway constriction by pulmonary function test (PenH)", "setting": "BALB/c mice; Group C: ATO 2.5 mg/kg, Mch 25 mg/ml, mean ± SD, p<0.05 vs Group B", "result": "10.15 ± 0.84"},
      {"measurement": "airway constriction by pulmonary function test (PenH)", "setting": "BALB/c mice; Group C: ATO 2.5 mg/kg, Mch 50 mg/ml, mean, p<0.05 vs Group B", "result": 9.83},
      {"measurement": "airway constriction by pulmonary function test (PenH)", "setting": "BALB/c mice; Group D: ATO 5 mg/kg, Mch 6.25 mg/ml, mean ± SD", "result": "2.55 ± 0.35"},
      {"measurement": "airway constriction by pulmonary function test (PenH)", "setting": "BALB/c mice; Group D: ATO 5 mg/kg, Mch 12.5 mg/ml, mean ± SD", "result": "8.82 ± 0.88"},
      {"measurement": "airway constriction by pulmonary function test (PenH)", "setting": "BALB/c mice; Group D: ATO 5 mg/kg, Mch 25 mg/ml, mean ± SD", "result": "11.57 ± 1.52"},
      {"measurement": "airway constriction by pulmonary function test (PenH)", "setting": "BALB/c mice; Group D: ATO 5 mg/kg, Mch 50 mg/ml, mean", "result": 12.51},
      {"measurement": "onset of severe proteinuria in comparison with untreated animals", "setting": "NZB/NZW mice; 2.5 mg/kg ATO and 5 mg/kg ATO", "result": "marked delay in the onset of severe proteinuria"},
      {"measurement": "Mice with severe glomerulonephritis (%)", "setting": "NZB/NZW mice; 2.5 mg/kg, 37 weeks", "result": 16.67, "unit": "%"},
      {"measurement": "Mice with severe glomerulonephritis (%)", "setting": "NZB/NZW mice; 2.5 mg/kg, 40 weeks", "result": 40, "unit": "%"},
      {"measurement": "Mice with severe glomerulonephritis (%)", "setting": "NZB/NZW mice; 5 mg/kg, 37 weeks", "result": 25, "unit": "%"},
      {"measurement": "Mice with severe glomerulonephritis (%)", "setting": "NZB/NZW mice; 5 mg/kg, 40 weeks", "result": 25, "unit": "%"},
      {"measurement": "killing effect on Trypanosoma brucei (viable cell count)", "setting": "Trypanosoma brucei; 0.1 mg/ml/day for 3 days, over 7 days", "result": "complete killing effect"},
      {"measurement": "death morphology on cytology observation", "setting": "Trypanosoma brucei; cultured Trypanosoma brucei", "result": "Cells became thread-like"},
      {"measurement": "killing dosage compared with Melarsoprol", "setting": "Trypanosoma brucei; cultured Trypanosoma brucei", "result": "comparable, if not better"},
      {"measurement": "killing potency versus 3 doses regimen", "setting": "Trypanosoma brucei; one dose regimen of 0.3 mg/ml", "result": "less killing potency at least one log difference"}
    ]}
  ]
}
